From patent publication US20240034765A1, “SCG2 NEUROPEPTIDES AND USES THEREOF” (PRESIDENT AND FELLOWS OF HARVARD COLLEGE, priority 2020, published 2024)

Key:
[1] = tested on: IPSCs in CA1 pyramidal neurons; test: Check that IPSCs in dual whole-cell recordings are monosynaptic (onset latency); assay type: cell-based, mice; settings: NBQX and (R)-CPP added together in the bath
Description: For electrical stimulation experiments, electrical current was delivered via theta glass stimulation electrode placed in the center of stratum pyramidale or stratum radiatum within 150-200 μm of the recorded neuron pair. The stimulus strength was the minimum required to generate small but reliable currents in both neurons. IPSCs were pharmacologically isolated via the addition of 10 μM NBQX (TOCRIS 1044) and 10 μM (R)-CPP (TOCRIS 0247) to the ACSF perfusion.
For the paired interneuron-to-CA1 pyramidal neuron recordings, the monosynaptic nature of the IPSCs was confirmed based on the expected onset latency of 1-3 ms in slice.

[2] = tested on: PV-IPSCs in CA1 PCs; test: shRNA-mediated gene knockdown, dual whole-cell recordings of light-evoked PV-IPSCs; assay type: in vivo; settings: Dlx5/6Flp; PVCre mice treated with KA for 24 h
From the text: To identify molecular effector(s) of bidirectional perisomatic inhibitory plasticity downstream of Fos activation, short hairpin RNA (shRNA)-mediated gene knockdown was used to determine if any of the six candidate genes mediate the activity-dependent strengthening of PV-mediated inhibition. After verifying the efficiency of knockdown in neurons (see e.g., FIG. 13B) and the absence of adverse effects on overall neuronal viability, individual shRNAs were cloned into a Flp-OFF AAV, allowing payload inactivation by Flp recombinase and the exclusion of shRNA expression in GABAergic INs when using Dlx5/6^Flp mice (see e.g., FIG. 4A, FIG. 4B, FIG. 13C, FIG. 8A).
Following sparse transduction of neurons, PV-IPSCs was simultaneously measured in neighboring pairs of shRNA-positive (mCherry^+) and shRNA-negative (mCherry^−) PCs by photostimulating PV-specific ChR2-expressing boutons in Dlx5/6^Flp; PV^Cre mice that had been treated with KA for 24 h (see e.g., FIG. 4B). […] Similar results were observed following more the physiological condition of NE exposure (see e.g., FIG. 4E, FIG. 13F), indicating a prominent role for CA1 PC-derived Scg2 in the long-term regulation of PV-mediated inhibition.
Viral vectors and titers. All AAVs used were prepared in a Hospital Viral Core and were of serotype AAV2/1. For sparse transductions, viruses were injected at 1×10^8 genome copies per hippocampal hemisphere. For dense transductions, viruses were injected at 2×10^9 genome copies (gc) per hippocampal hemisphere. The viral vectors and original titers were as follows: pAAV-EF1a-DIO-hChR2(H134R)-EYFP (ADDGENE 20298, 1.75×10^13 gc/mL), pAAV-EF1a-fDIO-hChR2(H134R)-EYFP (ADDGENE 55639, 1.39×10^13 gc/mL), pAAV-hSyn-Con/Fon-hChR2-EYFP (ADDGENE 55645, […]), pAAV-pRAM-tTA::TRE-NLS-mKate2-WPREpA (ADDGENE 84474, 2.25×10^13 gc/mL), pAAV-CAG-Cre-GFP (OHIO STATE UNIVERSITY, 1.75×10^13 gc/mL), pAAV-CAG-Cre-mCherry (described herein, 9.10×10^12 gc/mL), pAAV-CAG-Cre-mTagBFP2 (described herein, 2.97×10^12 gc/mL), pAAV-CAG-deltaCre-GFP (described herein, 2.79×10^12 gc/mL), pAAV-FlpOFF-u6-shRNA-CAG-mCherry (described herein): Scrambled control shRNA (SEQ ID NO: 13, ACTTACGCTGAGTACTTCG) (5.08×10^13 gc/mL), Inhba (SEQ ID NO: 14, […]) (4.62×10^13 gc/mL), Bdnf (SEQ ID NO: 15, […]) (6.97×10^13 gc/mL), Pcsk1 (SEQ ID NO: 16, […]) (6.02×10^12 gc/mL), Nptx2 (SEQ ID NO: 17, […]) (1.30×10^12 gc/mL), Scg2#1 (SEQ ID NO: 18, […]) (8.11×10^11 gc/mL), Scg2#2 (SEQ ID NO: 19, […]) (2.75×10^13 gc/mL), Rgs2 (SEQ ID NO: 20, […]) (6.14×10^12 gc/mL), pAAV-CaMKIIa-mCherry (described herein, 3.80×1012 gc/mL), pAAV-CaMKIIa-hM3DGq-T2A-mCherry (described herein, 1.20×10^12 gc/mL), pAAV-hSyn-FlpOFF-Kir2.1-T2A-mCherry (described herein, 2.26×10^12 gc/mL), pAAV-hSyn-FlpOFF-Kir.2.1(Mutant)-T2A-mCherry (described herein, 1.28×10^12 gc/mL; see e.g., Xue et al. (2014), supra), pAAV-u6(Frt)-shRNA#31-CAG-Scg2-rescue (shRNA-resistant)-1×HA-T2A-mCherry-Frt-SV40 (described herein, 1.88×10^12 gc/mL), pAAV-CAG-DIO-Scg2(WT)-3×HA-bGH polyA (described herein, 8.22×10^13 gc/mL), pAAV-CAG-DIO-Scg2(9AA Mutant)-3×HA-bGH polyA (described herein, 6.13×10^13 gc/mL), pAAV-CAG-Frt-Scg2(WT)-1×HA-T2A-mCherry-Frt-bGH polyA (described herein, 1.08×10^13 gc/mL), and pAAV-CAG-Scg2(9AA Mutant)-1×HA-T2A-mCherry-Frt-bGH polyA (described herein, 3.71×10^12 gc/mL).
Ex vivo electrophysiology.

[3] = tested on: PV-IPSCs in CA1 PCs; test: Scg2 rescue and overexpression, dual whole-cell recordings of PV-IPSCs; assay type: in vivo, mice
From the text: These findings were further corroborated through a series of rescue and overexpression experiments. […] In addition, amplitudes of light-evoked PV-IPSCs or CCK-IPSC were compared in Scg2-overexpressing (Scg2-OE) and neighboring control (Scg2-WT) neurons; gain-of-function of Scg2 was sufficient to strengthen PV-mediated inhibition and weaken CCK-mediated inhibition, respectively, in the absence of neural activity (see e.g., FIG. 5J, FIG. 15E, FIG. 15F).
Cleavage of the Scg2 precursor gives rise to multiple neuropeptides with distinct functions (see e.g., FIG. 4F). Given that Scg2 cleavage is directed by a series of internal dibasic residues, a cleavage-resistant form of Scg2 was generated in which the nine dibasic sequences were mutated to alanine (9AA-Mut).
Viral vectors and titers. All AAVs used were prepared in a Hospital Viral Core and were of serotype AAV2/1. For sparse transductions, viruses were injected at 1×10^8 genome copies per hippocampal hemisphere. For dense transductions, viruses were injected at 2×10^9 genome copies (gc) per hippocampal hemisphere. […]

[4] = tested on: CCK-IPSCs in CA1 PCs; test: Scg2 rescue and overexpression, dual whole-cell recordings of CCK-IPSCs; assay type: in vivo, mice
[5] = exogenous expression in shRNA-mediated knockdown or Scg2fl/fl knockout conditions
[6] = overexpression in the absence of neural activity

O=C(O)[C@H]1CN(CCCP(=O)(O)O)CCN1 [(R)-CPP, 3-((R)-2-Carboxypiperazin-4-yl)-propyl-1-phosphonic acid]
onset latency of the IPSCs [1]: did not alter

NS(=O)(=O)c1cccc2c1c([N+](=O)[O-])cc1nc(O)c(O)nc12 [NBQX, 2,3-dihydroxy-6-nitro-7-sulphamoyl-benzo(F)quinoxaline]
onset latency of the IPSCs [1]: did not alter

shRNA Bdnf: shRNA in pAAV-FlpOFF-u6-shRNA-CAG-mCherry, SEQ ID NO: 15, GAATTGGCTGGCGATTCATA
amplitudes of PV-IPSC in shRNA-positive versus neighboring shRNA-negative PCs [2]: slight decrease

shRNA Inhba: shRNA in pAAV-FlpOFF-u6-shRNA-CAG-mCherry, SEQ ID NO: 14, CCTTCCACTCAACAGTCATT
amplitudes of PV-IPSC in shRNA-positive versus neighboring shRNA-negative PCs [2]: no effects

shRNA Nptx2: shRNA in pAAV-FlpOFF-u6-shRNA-CAG-mCherry, SEQ ID NO: 17, GAAGACATTGCCTGAGCTGT
amplitudes of PV-IPSC in shRNA-positive versus neighboring shRNA-negative PCs [2]: no effects

shRNA Pcsk1: shRNA in pAAV-FlpOFF-u6-shRNA-CAG-mCherry, SEQ ID NO: 16, GATAATGATCATGATCCATT
amplitudes of PV-IPSC in shRNA-positive versus neighboring shRNA-negative PCs [2]: no effects

shRNA Rgs2: shRNA in pAAV-FlpOFF-u6-shRNA-CAG-mCherry, SEQ ID NO: 20, GCTCCCAAAGAGATAAACAT
amplitudes of PV-IPSC in shRNA-positive versus neighboring shRNA-negative PCs [2]: no effects

B1: Scg2: wildtype full-length Scg2 (secretogranin II) precursor protein exogenously expressed from AAV in CA1 pyramidal cells (protein, UniProt Q03517 1-617, looked up)
chain: MAGAKAYRLGAVLLLIHLIFLISGAEAASFQRNQLLQKEPDLRLENVQKFPSPEMIRALEYIEKLRQQAHREESSPDYNPYQGVSVPLQLKENGEESHLAESSRDALSEDEWMRIILEALRQAENEPPSAPKENKPYALNLEKNFPVDTPDDYETQQWPERKLKHMRFPLMYEENSRENPFKRTNEIVEEQYTPQSLATLESVFQELGKLTGPSNQKRERVDEEQKLYTDDEDDVYKTNNIAYEDVVGGEDWSPIEEKIETQTQEEVRDSKENTEKNEQINEEMKRSGQLGLPDEENRRESKDQLSEDASKVITYLRRLVNAVGSGRSQSGPNGDRAARLLQKPLDSQSIYQLIEISRNLQIPPEDLIEMLKAGEKPNGLVEPEQDLELAVDLDDIPEADLDRPDMFQSKMLSKGGYPKAPGRGMVEALPDGLSVEDILNVLGMENVVNQKSPYFPNQYSQDKALMRLPYGPGKSRANQIPKVAWIPDVESRQAPYENLNDQELGEYLARMLVKYPELLNTNQLKRVPSPVSSEDDLQEEEQLEQAIKEHLGPGSSQEMERLAKVSKRIPVGSLKNEDTPNRQYLDEDMLLKVLEYLNQEQAEQGREHLAKRAMENM
modifications: full-length
notes: wildtype full-length Scg2 (secretogranin II) precursor protein exogenously expressed from AAV in CA1 pyramidal cells
PV-mediated inhibition, rescue of loss of Scg2 [3, 5]: restored to control levels | PV-mediated inhibition, overexpressing versus neighboring control neurons [3, 6]: strengthen | CCK-mediated inhibition, rescue of loss of Scg2 [4, 5]: restored to control levels | CCK-mediated inhibition, overexpressing versus neighboring control neurons [4, 6]: weaken
